Our source for the GI50 and IC50 values is patent US8410150B2, “Inhibitors of carnitine palmitoyltransferase and treating cancer” (University Health Network, priority 2007, dated 2013).

The subject of one experiment is Caov-3. Kind of experiment: Cell growth inhibition, SRB assay. The conditions noted are these: Ovarian Caov-3, 3% FBS. Type of experiment: cell-based, human. On the procedure: (§1) Compounds were dissolved in DMSO and further diluted in cell culture medium for the experiments performed. Cells were seeded into 96-well plates with 1,500-5,000 cells/well according to cell growth rate. After 24 h, DMEM medium containing 10% FBS were changed to DMEM containing 3% FBS for cancer cells and additional 3% FBS were added into the culture medium for normal cells. The compound was added into the cell culture at the indicated concentrations, and the final concentration of DMSO was adjusted to a final concentration of 0.1%. Cells were subjected to either normoxic condition (20% O2) for 6 days or hypoxic condition (0.2% O2) for 2 days and then transferred to normoxic condition for 4 days. Cell viability was assessed by Sulforhodamine B (SRB) assay at Day 6.
(§2) Sulforhodamine B (SRB) (Sigma, Oakville, ON, Canada) is a water-soluble dye that binds to the basic amino acids of the cellular proteins. Thus, colorimetric measurement of the bound dye provides an estimate of the total protein mass that is related to the cell number. The cells were fixed in situ by gently aspirating off the culture media and adding 50 ul of cold 10% trichloroacetic Acid (TCA) per well and incubated at 4° C. for 30-60 min. The plates were washed five times with water and allowed to air dry for 5 min. 50 ul of 0.4% (w/v) SRB dissolved in 1% (v/v) acetic acid were added into each well, plates were then incubated at RT for 30 min for staining, washed four times with 1% acetic acid to remove any unbound dye and then allowed to air dry for 5 min. Stain was solubilized with 100 ul of 10 mM Tris pH 10.5 per well. Absorbance was read at 570 nm on a spectrophotometer. GI50 (compound concentration required for 50% of growth inhibition) was calculated using GraphPad Prism 4.0 software (GraphPad Software, Inc., San Diego, Calif., USA).
(§3) Cell viability of various cell lines treated with 3-carboxy-N,N,N-trimethyl-2-pentadecanamidopropan-1-aminium (“nPAC”) and compound of Examples S7, S63, S66, S90, S89, S67, S75 and S10 was also assessed in a manner as described above in Example 5.
On the technique in general: The SRB assay estimates cell density from bound dye.

In another experiment the test system is A54. Kind of experiment: Cell growth inhibition, SRB assay. Conditions: Lung A54, 3% FBS. It is filed as cell-based, human. On the procedure:
as §1, §2, §3

The subject of the next experiment is SW620. Kind of experiment: Cell growth inhibition, SRB assay. Type of experiment: cell-based, human. The conditions noted are these: Colon SW620, 3% FBS. On the procedure:
as §1, §2, §3

A further experiment deals with SW480. Kind of experiment: Cell growth inhibition, SRB assay. It is filed as cell-based, human. Conditions: Colon SW480, 3% FBS. On the procedure: as §1, §2, §3
Another experiment concerns MDA-231. Kind of experiment: Cell growth inhibition, SRB assay. It is filed as cell-based, human. Conditions: Breast MDA-231, 3% FBS. On the procedure:
as §1, §2, §3

In another experiment the test system is COLO-205. Nature of the experiment: Cell growth inhibition, SRB assay. Type of experiment: cell-based, human. The conditions noted are these: Colon COLO-205, 3% FBS. On the procedure: as §1, §2, §3
A further experiment has as its system HCT-15. Kind of experiment: Cell growth inhibition, SRB assay. It is filed as cell-based, human. The conditions noted are these: Colon HCT-15, 3% FBS. How it is done:
as §1, §2, §3

A further experiment concerns Hs578T. Kind of experiment: Cell growth inhibition, SRB assay. It is filed as cell-based, human. Conditions: Breast Hs578T, 3% FBS. On the procedure:
as §1, §2, §3

The test system of a further experiment is A172. Kind of experiment: Cell growth inhibition, SRB assay. Type of experiment: cell-based, human. The conditions noted are these: Brain A172, 3% FBS; read-out: GI50. On the procedure: (§4) Human cancer cells (MCF-7, H358, H460, HCT116 p53^+/+, HCT116 p53^−/−, A172, PC-3, DU-145 and SW626) were maintained in DMEM medium containing 10% Fetal Bovine Serum (FBS) (Invitrogen, Burlington, ON, Canada) and normal cells HMEC, 184A1, NHBE and PrEC were cultured in MEGM, MEGM plus transferring and cholera toxin, BEGM and PrEGM supplemented with various growth factors (Cambrex, Charles city, IA, USA), respectively.
as §1, §2, §3

The next experiment deals with H358. Nature of the experiment: Cell growth inhibition, SRB assay. Type of experiment: cell-based, human. The conditions noted are these: Lung H358, 3% FBS; read-out: GI50. How it is done:
as §4, §1, §2, §3

The next experiment concerns PC-3. Kind of experiment: Cell growth inhibition, SRB assay. The conditions noted are these: Prostate PC-3, 3% FBS; read-out: GI50. It is filed as cell-based, human. How it is done:
as §4, §1, §2, §3

Another experiment concerns MCF-7. Kind of experiment: Cell growth inhibition, SRB assay. The conditions noted are these: Breast MCF-7, 3% FBS; read-out: GI50. Type of experiment: cell-based, human. How it is done: as §4, §1, §2, §3
The next experiment relates to SW626. Kind of experiment: Cell growth inhibition, SRB assay. It is filed as cell-based, human. The conditions noted are these: Ovarian SW626, 3% FBS; read-out: GI50. On the procedure: as §4, §1, §2, §3
The target in a further experiment is T1, human CPT1A (Homo sapiens, UniProt P50416).
T1 construct: made in house; host or cells: Saccharomyces cerevisiae (pESC-trp) or cultured mammalian cells (pCDNA3.1); mitochondrial extract
T1 sequence (P50416 1-773): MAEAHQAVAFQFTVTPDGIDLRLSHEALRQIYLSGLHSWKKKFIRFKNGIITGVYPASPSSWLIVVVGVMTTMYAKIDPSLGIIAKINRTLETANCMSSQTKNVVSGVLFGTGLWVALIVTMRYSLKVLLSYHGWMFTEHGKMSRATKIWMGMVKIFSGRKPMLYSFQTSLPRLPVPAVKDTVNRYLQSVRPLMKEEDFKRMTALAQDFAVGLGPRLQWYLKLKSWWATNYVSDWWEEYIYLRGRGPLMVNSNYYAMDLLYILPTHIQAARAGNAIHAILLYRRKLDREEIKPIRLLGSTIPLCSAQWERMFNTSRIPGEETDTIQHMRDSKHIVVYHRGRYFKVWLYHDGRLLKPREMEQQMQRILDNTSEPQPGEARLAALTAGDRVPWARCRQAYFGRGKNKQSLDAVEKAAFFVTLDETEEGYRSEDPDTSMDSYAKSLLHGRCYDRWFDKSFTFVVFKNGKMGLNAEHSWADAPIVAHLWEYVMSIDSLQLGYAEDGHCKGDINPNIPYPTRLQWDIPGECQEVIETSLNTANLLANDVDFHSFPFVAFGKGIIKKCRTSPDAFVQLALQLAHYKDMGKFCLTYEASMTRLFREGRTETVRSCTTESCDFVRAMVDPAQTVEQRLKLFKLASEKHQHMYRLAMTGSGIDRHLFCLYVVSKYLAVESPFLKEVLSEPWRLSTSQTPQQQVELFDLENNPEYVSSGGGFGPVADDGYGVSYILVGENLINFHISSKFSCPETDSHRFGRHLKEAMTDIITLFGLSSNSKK
Kind of experiment: Human CPT1A LC/MS assay. Type of experiment: biochemical. The conditions noted are these: human CPT1A LC/MS assay, dose response format. Put shortly:
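Mitochondrial extracts (1.6 μg protein) expressing human CPT1A, preincubated 10 min with compound in 20% DMSO, then reacted 10 min at room temperature with 20 μM palmitoyl-CoA, 50 μM L-carnitine (pH 7.5). Palmitoyl carnitine was quantified by LC/MS against a myristoyl carnitine standard; 16-point, 2-fold titrations gave dose response.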

By GI50 is commonly meant the concentration that inhibits growth by half. In general, IC50 refers to the point on the concentration scale where inhibition reaches its midpoint. A lower IC50 goes with greater potency.

On to “3-carboxy-N,N,N-trimethyl-2-pentadecanamidopropan-1-aminium [nPAC, reference compound]”, for which the GI50 in the experiment on Caov-3 amounted to 1.3 µM; in the experiment on A54 it was 20 µM; in the experiment with SW620, 0.5 µM; in the experiment with SW480 it was 0.4 µM; in the experiment on MDA-231 it was 10 µM; in the experiment on COLO-205 it was 0.4 µM. Besides, the GI50 in the experiment on HCT-15 amounted to 1.5 µM; in the experiment on Hs578T, 19 µM; in the experiment on A172 it was 3.2 µM; in the experiment with H358, 0.7 µM; in the experiment with PC-3 it was 2.5 µM; with MCF-7, 6.6 µM. Besides, the GI50 with SW626 was 1.2 µM.
As to `C[N+](C)(C)C[C@@H](CC(=O)[O-])NC(=O)c1ccc(OCC(F)(F)F)nc1` [Example S52, (R)-3-(6-(2,2,2-trifluoroethoxy)nicotinamido)-4-(trimethylammonio)butanoate], the 50% inhibitory concentration (IC50) at human CPT1A was in the range of 1000 to 2500 µM.
Still for that read-out and setting: for `C[N+](C)(C)C[C@@H](CC(=O)O)NS(=O)(=O)c1ccc(C#Cc2ccccc2)s1` [Example S78, (R)-3-carboxy-N,N,N-trimethyl-2-(5-(phenylethynyl)thiophene-2-sulfonamido)propan-1-aminium 2,2,2-trifluoroacetate] the value was 100 to 1000 µM.
On the same count and under the same terms, for `C[N+](C)(C)C[C@@H](CC(=O)O)NC(=O)c1cccc(CCc2ccccc2)c1` [Example S46, (R)-3-(3-phenethylbenzamido)-4-(trimethylammonio)butanoate] the value was 100 to 1000 µM.
At human CPT1A, `CC(C)(C)c1ccc(OCc2ccc(C(=O)N[C@H](CC(=O)[O-])C[N+](C)(C)C)o2)cc1` [Example S60, (R)-3-(5-((4-tert-butylphenoxy)methyl)furan-2-carboxamido)-4-(trimethyl-ammonio)butanoate] returned a concentration for half-maximal inhibition (IC50) of 100 to 1000 µM.
In turn, `C[N+](C)(C)C[C@@H](CC(=O)O)NC(=O)c1ccc(CCc2ccccc2)s1` [Example S45, (R)-3-(5-phenethylthiophene-2-carboxamido)-4-(trimethylammonio)-butanoate] registered an IC50 against human CPT1A of at most 1 µM.
Still for that read-out and setting: for `CCCCCc1ccc(CCC2CCC(C(=O)N[C@H](CC(=O)[O-])C[N+](C)(C)C)O2)cc1` (stereo partly drawn) [Example S121, (3R)-3-(5-(4-pentylphenethyl)tetrahydrofuran-2-carboxamido)-4-(trimethylammonio)butanoate] the value was 1 to 10 µM; for `C[N+](C)(C)C[C@@H](CC(=O)[O-])NC(=O)c1ccc(C#Cc2ccccc2)o1` [Example S3, (R)-3-(5-(phenylethynyl)furan-2-carboxamido)-4-(trimethylammonio)-butanoate], 10 to 100 µM.
